Source: PMC4461042 (Structure (London, England : 1993), 2015)
Like-named read-outs stand apart in the source and are kept apart here.

Columns and labels:
[1] = target: A-AChBP/α7 chimera III; format: binding; settings: read-out: Kd/equ
[2] = target: T1, human neuronal α4β2 nAChR (Homo sapiens, UniProt P17787+P43681); format: cell-based; settings: read-out: IC50, inhibition of ACh-evoked nicotinic currents
[3] = target: T2, human neuronal α7 nAChR (Homo sapiens, UniProt P36544); format: cell-based
T2 sequence (P36544 23-502): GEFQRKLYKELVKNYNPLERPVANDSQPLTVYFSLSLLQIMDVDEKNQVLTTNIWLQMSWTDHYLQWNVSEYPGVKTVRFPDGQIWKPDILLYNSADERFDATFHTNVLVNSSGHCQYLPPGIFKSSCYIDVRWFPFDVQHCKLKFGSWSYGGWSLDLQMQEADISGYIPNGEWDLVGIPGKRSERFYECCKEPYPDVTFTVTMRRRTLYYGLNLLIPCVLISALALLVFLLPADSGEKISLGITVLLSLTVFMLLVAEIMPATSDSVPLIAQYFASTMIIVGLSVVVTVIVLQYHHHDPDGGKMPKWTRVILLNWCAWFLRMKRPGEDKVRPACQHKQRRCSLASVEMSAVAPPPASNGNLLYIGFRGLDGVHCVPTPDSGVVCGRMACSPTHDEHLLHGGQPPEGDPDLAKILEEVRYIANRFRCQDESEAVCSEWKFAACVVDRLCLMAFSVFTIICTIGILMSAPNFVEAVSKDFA

[4] = target: T3, α3β2 nAChR (Homo sapiens, UniProt P17787+P32297); format: binding
T3 sequence (P17787 26-502): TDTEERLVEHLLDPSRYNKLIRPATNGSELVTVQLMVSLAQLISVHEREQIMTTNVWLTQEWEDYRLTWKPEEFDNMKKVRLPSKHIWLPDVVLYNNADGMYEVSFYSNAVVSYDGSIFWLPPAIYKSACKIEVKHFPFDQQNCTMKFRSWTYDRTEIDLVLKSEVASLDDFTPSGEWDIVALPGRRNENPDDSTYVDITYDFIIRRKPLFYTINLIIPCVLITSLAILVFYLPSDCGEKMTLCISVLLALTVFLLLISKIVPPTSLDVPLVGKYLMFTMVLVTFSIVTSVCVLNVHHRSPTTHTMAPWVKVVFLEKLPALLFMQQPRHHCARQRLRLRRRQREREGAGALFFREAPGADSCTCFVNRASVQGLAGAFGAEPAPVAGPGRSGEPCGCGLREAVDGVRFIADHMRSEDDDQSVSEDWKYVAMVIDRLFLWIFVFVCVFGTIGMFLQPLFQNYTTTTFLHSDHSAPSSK
T3 sequence (P32297 32-505): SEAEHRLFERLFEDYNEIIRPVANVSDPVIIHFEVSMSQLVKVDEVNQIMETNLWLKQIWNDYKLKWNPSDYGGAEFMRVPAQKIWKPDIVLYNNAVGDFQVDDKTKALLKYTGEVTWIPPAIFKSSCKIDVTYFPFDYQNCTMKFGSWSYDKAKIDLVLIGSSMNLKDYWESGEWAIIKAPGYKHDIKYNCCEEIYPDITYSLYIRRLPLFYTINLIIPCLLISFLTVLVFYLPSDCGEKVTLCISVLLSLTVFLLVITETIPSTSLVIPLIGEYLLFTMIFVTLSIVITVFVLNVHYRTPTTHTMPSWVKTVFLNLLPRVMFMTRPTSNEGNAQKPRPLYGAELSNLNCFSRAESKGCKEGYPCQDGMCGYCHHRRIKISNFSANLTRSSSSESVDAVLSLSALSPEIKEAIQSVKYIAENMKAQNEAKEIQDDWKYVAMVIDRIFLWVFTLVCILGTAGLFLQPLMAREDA

[5] = target: full-length α4β2 nAChR (Homo sapiens, UniProt P17787+P43681); format: binding
Sequence of full-length α4β2 nAChR (P17787 26-502): as the sequence (P17787 26-502) above
Sequence of full-length α4β2 nAChR (P43681 29-627): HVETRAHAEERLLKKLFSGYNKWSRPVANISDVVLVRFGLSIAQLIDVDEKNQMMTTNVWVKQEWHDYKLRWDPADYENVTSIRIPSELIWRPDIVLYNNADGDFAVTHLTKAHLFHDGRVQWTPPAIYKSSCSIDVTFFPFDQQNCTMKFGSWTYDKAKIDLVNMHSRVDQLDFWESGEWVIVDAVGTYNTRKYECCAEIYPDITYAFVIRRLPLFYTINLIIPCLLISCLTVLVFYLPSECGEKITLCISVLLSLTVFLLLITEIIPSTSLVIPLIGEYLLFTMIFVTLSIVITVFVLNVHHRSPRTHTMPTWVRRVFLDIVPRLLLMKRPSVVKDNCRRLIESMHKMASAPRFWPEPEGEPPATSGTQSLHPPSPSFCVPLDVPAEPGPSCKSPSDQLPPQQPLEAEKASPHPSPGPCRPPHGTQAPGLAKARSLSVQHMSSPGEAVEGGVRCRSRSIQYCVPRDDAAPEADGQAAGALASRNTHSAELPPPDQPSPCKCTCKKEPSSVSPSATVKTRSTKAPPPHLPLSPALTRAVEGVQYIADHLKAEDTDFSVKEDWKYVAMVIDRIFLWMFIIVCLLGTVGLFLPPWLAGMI

[6] = target: T4, α4β2 nAChR (Homo sapiens, UniProt P17787+P43681); format: binding
T4 sequence (P43681 29-627): as above
T4 sequence (P17787 26-502): as the sequence (P17787 26-502) above

[7] = system: muscle-type α1_2βγδ nAChR; format: cell-based, Torpedo; settings: read-out: IC50, inhibition of ACh-evoked nicotinic currents
[8] = target: T2, human neuronal α7 nAChR; settings: read-out: IC50, inhibition of ACh-evoked nicotinic currents; cited from earlier work
[9] = target: A-AChBP (Aplysia californica, UniProt Q8WSF8); format: binding; settings: for Kd: read-out: Kd/calc
Sequence of A-AChBP (Q8WSF8 18-236 limits assumed): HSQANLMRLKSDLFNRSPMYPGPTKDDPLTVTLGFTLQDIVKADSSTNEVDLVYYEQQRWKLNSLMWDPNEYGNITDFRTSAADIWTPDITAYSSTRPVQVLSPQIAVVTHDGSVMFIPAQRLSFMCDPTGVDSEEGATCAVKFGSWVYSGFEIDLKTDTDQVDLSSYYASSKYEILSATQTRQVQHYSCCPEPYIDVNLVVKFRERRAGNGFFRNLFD

[10] = target: L-AChBP (Lymnaea stagnalis, UniProt P58154); format: binding
Sequence of L-AChBP (P58154 20-229 limits assumed): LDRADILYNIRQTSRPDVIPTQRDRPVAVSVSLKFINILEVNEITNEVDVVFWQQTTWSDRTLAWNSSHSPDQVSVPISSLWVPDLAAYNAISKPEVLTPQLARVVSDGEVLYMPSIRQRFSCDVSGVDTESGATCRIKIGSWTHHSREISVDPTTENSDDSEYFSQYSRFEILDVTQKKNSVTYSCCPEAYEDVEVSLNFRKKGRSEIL

[11] = target: full-length α7 nAChR (Homo sapiens, UniProt P36544); format: binding
Sequence of full-length α7 nAChR (P36544 23-502): as the sequence (P36544 23-502) above

[12] = system: mice; settings: in vivo; cited from earlier work
[13] = target: T3, α3β2 nAChR; settings: cited from earlier work
[14] = target: T4, α4β2 nAChR; settings: cited from earlier work
[15] = system: muscle-type α1_2βγδ nAChR; settings: read-out: IC50, inhibition of ACh-evoked nicotinic currents; cited from earlier work
[16] = target: T1, human neuronal α4β2 nAChR; settings: read-out: IC50, inhibition of ACh-evoked nicotinic currents; cited from earlier work
[17] = read-out: Kd/equ, competitive component
[18] = read-out: Kd/equ, non-competitive component

T1 sequence (P43681 29-627): as the sequence (P43681 29-627) above
T1 sequence (P17787 26-502): as the sequence (P17787 26-502) above

| SMILES | Kd [5, 17] | Kd [5, 18] | IC50 [8] | koff [9] | kon [9] | Kd [9] | koff [10] | kon [10] | Kd ([10]; read-out: Kd/calc) | Kd [11, 17] | Kd [11, 18] | other results |
| --- | --- | --- | --- | --- | --- | --- | --- | --- | --- | --- | --- | --- |
| C=CC1=C[C@@H]2[C@@H]3O[C@]4(C[C@H]5CCC[C@@]6(CC[C@@]7(O[C@@H](CC[C@@]7(C)O)CC(=C)CCCC7=NC[C@H](C)[C@@H](C)C[C@@]72CC1)O6)O5)C[C@@H](C)[C@@H](O)[C@H]3O4 [PnTx-G, pinnatoxin-G] | 99 ± 50 nM | 87 ± 62 nM | 5.06 nM | 0.78 ± 0.06 ^b min^−1 | 0.91 ± 0.03 ^b 10^9 M^−1min^−1 | 0.86 ± 0.09 nM | 60 ± 30 ^b min^−1 | 0.17 ± 0.01 ^b 10^9 M^−1min^−1 | 360 ± 210 nM | 34 ± 4 nM | 270 ± 50 nM | Kd [1]: 174 ± 19 nM; IC50 [2]: 4.9 nM; lower potency towards α7 compared with PnTx-A [3]: ~ 50 fold; Ki [4]: 63.9 ± 1.2 nM; Ki [6]: 101 ± 30 nM; IC50 [7]: 3.82 nM; Kd ([10]; read-out: Kd/equ): 315 nM |
| C=C1CCCC2=NC[C@H](C)[C@@H](C)C[C@@]23CCC(C(=O)O)=C[C@@H]3[C@@H]2O[C@]3(C[C@H]4CCC[C@@]5(CC[C@@]6(O[C@@H](CC[C@@]6(C)O)C1)O5)O4)C[C@@H](C)[C@@H](O)[C@H]2O3 [(−)-PnTx-A] |  |  |  |  |  |  |  |  |  |  |  | activity in mouse assays [12]: inactive |
| C=C1CCCC2=NC[C@H](C)[C@@H](C)C[C@@]23CCC(C(=O)O)=C[C@@H]3[C@@H]2O[C@]3(C[C@H]4CCC[C@@]5(CC[C@@]6(O[C@@H](CC[C@@]6(C)O)C1)O5)O4)C[C@@H](C)[C@@H](O)[C@H]2O3 [PnTx-A, pinnatoxin-A] | 95 ± 11 nM | 199 ± 1 nM | 0.107 nM | < 0.06 ^b min^−1 | 1.4 ± 0.7 ^a 10^9 M^−1min^−1 | < 0.05 nM | 31.6 ± 7.9 ^a min^−1 | 0.21 ± 0.09 ^a 10^9 M^−1min^−1 | 170 ± 77 nM | 0.18 ± 0.1 nM | 2.6 ± 1.3 nM | greater potency (IC50) toward α7 than α4β2 [3]: ~ 300 fold; Ki [13]: 9.4 ± 1.9 nM; Ki [14]: 15.6 ± 5.2 nM; IC50 [15]: 5.53 nM; IC50 [16]: 30.4 nM |
